Results taken from ChEMBL document CHEMBL5223098, “Prodrugs of pyrophosphates and bisphosphonates: disguising phosphorus oxyanions” (RSC Med Chem, 2022).
Each block holds one molecule with its values, some of them ahead of it.

Columns and labels:
[1] = Apparent partition coefficient, logPapp of the compound in pH 7.4 phosphate buffer incubated for 30 mins by HPLC analysis; format: physicochemical
[2] = Half-life of the compound in 80% human serum by HPLC analysis; format: ADME, cell-free; conditions: 80% serum
[3] = Half-life of the compound in pH 7.4 phosphate buffer by HPLC analysis; format: physicochemical
[4] = Half-life of the compound in pH 2.0 phosphate buffer by HPLC analysis; format: physicochemical
[5] = 1-Octanol/phosphate buffer apparent partition coefficient, logPapp of the compound at pH 7.4 by shake-flask method; format: physicochemical
[6] = Half-life of the compound in 10% rabbit liver homogenate by HPLC analysis; format: ADME, tissue-based, Oryctolagus cuniculus; conditions: 10% liver homogenate
[7] = Half-life of the compound in pH 5.0 phosphate buffer by HPLC analysis; format: physicochemical
[8] = Octanol-water partition coefficient, logP of the compound by shake-flask method; format: physicochemical
[9] = Apparent partition coefficient, logPapp of the compound by HPLC analysis; format: physicochemical; conditions: octanol/water
[10] = Half-life of the compound in human serum by HPLC analysis; format: ADME, cell-free
[11] = 1-Octanol/phosphate buffer apparent partition coefficient, logPapp of the compound by shake-flask method; format: physicochemical
[12] = Half-life of the compound in pH 7.3 PBS buffer; format: physicochemical
[13] = Half-life of the compound in human CEM/0 cell extract at pH 6.9; format: ADME, CCRF-CEM
[14] = Half life of the compound in RPMI medium; format: physicochemical
[15] = Half life of the compound in pH 7.0 TEAA buffer; format: physicochemical
[16] = test system: Human immunodeficiency virus 2; test: Potency index, ratio of d4T EC50 to test compound EC50 for antiviral activity against HIV2 infected in human CEM-TK(-) cells assessed as inhibition of viral replication incubated for 4 to 5 days by microscopic analysis; format: functional; conditions: time 4-5 day
[17] = test system: Human immunodeficiency virus 2; test: Antiviral activity against HIV2 infected in human CEM-TK(-) cells assessed as inhibition of viral replication incubated for 4 to 5 days by microscopic analysis; format: functional, organism-based; conditions: Human immunodeficiency virus 2, CEM-TK(-)
[18] = Time for quantitative release of etidronate in 10% rabbit liver homogenate; conditions: 10% liver homogenate

SMILES: CC(C)(C)C(=O)OP(=O)(O)C(Cl)(Cl)P(=O)(O)OC(=O)C(C)(C)C
logD at 0.5 h [1]: -2.3
half-life [2]: 3.3 h

SMILES: O=C(OP(=O)(O)C(Cl)(Cl)P(=O)(O)OC(=O)c1ccccc1)c1ccccc1
logD at 0.5 h [1]: -2.3

SMILES: CCCC(=O)OP(=O)(O)C(Cl)(Cl)P(=O)(O)OC(=O)CCC
half-life [3]: 15.2 h
logD at 0.5 h [1]: -2.3
half-life [4]: 0.75 h

SMILES: COc1ccc(OP(=O)(O)C(O)(c2cccc(Br)c2)P(=O)(O)Oc2ccc(OC)cc2)cc1 (stereo not drawn)
logP [8]: -0.31

SMILES: CC(=O)Oc1ccc(COP(=O)(OCc2ccc(OC(C)=O)cc2)OP(=O)(O)OC[C@H]2O[C@@H](n3cc(C)c(=O)[nH]c3=O)C[C@@H]2N=[N+]=[N-])cc1
half-life [12]: 17 h
half-life [13]: 2 min

SMILES: CCCCCCCCCCCCCC(=O)OP(=O)(O)OP(=O)(O)OC[C@H]1O[C@@H](n2cc(C)c(=O)[nH]c2=O)C[C@@H]1N=[N+]=[N-]
half-life [14]: 1.7 h
half-life [15]: 114 h

SMILES: Cc1cn([C@H]2C=C[C@@H](COP(=O)(O)OP(=O)(OCc3ccc(OC(=O)c4ccccc4)cc3)OCc3ccc(OC(=O)c4ccccc4)cc3)O2)c(=O)[nH]c1=O
Ratio EC50 [16]: 82
EC50 [17]: 850 nM

SMILES: CCCCCCCC(=O)Oc1ccc(COP(=O)(OCc2ccc(OC(=O)CCCCCCC)cc2)OP(=O)(O)OC[C@@H]2C=C[C@H](n3cc(C)c(=O)[nH]c3=O)O2)cc1
Ratio EC50 [16]: 27
EC50 [17]: 2600 nM

SMILES: CC(O)(P(=O)(O)O)P(=O)(O)O [ETIDRONIC ACID]
time to quantitative release [18]: 3300 min

SMILES: Cc1cn([C@H]2C=C[C@@H](CO)O2)c(=O)[nH]c1=O [STAVUDINE]
EC50 [17]: 70000 nM

Now from value to molecule:

half-life [3]: 15.2 h
logD at 0.5 h [1]: -2.3
half-life [4]: 0.75 h
SMILES: CC(=O)OP(=O)(O)C(Cl)(Cl)P(=O)(O)OC(C)=O

logD [5]: -2.1
half-life [6]: 0.233 h
SMILES: CC(C)(C)C(=O)OCOP(=O)(O)C(Cl)(Cl)P(=O)(O)OCOC(=O)C(C)(C)C

logD [5]: 7.4
SMILES: CC(C)(C)C(=O)OCOP(=O)(OCOC(=O)C(C)(C)C)C(Cl)(Cl)P(=O)(OCOC(=O)C(C)(C)C)OCOC(=O)C(C)(C)C

half-life [3]: > 1 h
half-life [7]: > 1 h
logD [5]: 1.6
half-life [6]: 0.0183 h
SMILES: CC(C)(C)C(=O)OCOP(=O)(O)C(Cl)(Cl)P(=O)(OCOC(=O)C(C)(C)C)OCOC(=O)C(C)(C)C

logD [9]: 7.4
SMILES: CC(=O)OC(C)(P(=O)(OCOC(=O)C(C)(C)C)OCOC(=O)C(C)(C)C)P(=O)(OCOC(=O)C(C)(C)C)OCOC(=O)C(C)(C)C

half-life [10]: 4.8 h
half-life [3]: 163 h
half-life [7]: 252 h
half-life [6]: 0.045 h
logD [11]: 0.6
SMILES: CC(=O)OC(C)(P(=O)(O)OCOC(=O)C(C)(C)C)P(=O)(OCOC(=O)C(C)(C)C)OCOC(=O)C(C)(C)C (stereo not drawn)
